The values that follow come from PMC10424242, “Macrocyclic Peptidomimetic Plasmepsin X Inhibitors with Potent In Vitro and In Vivo Antimalarial Activity” (Journal of Medicinal Chemistry, 2023).

The assay deals with PMIV (Plasmodium falciparum, UniProt Q8IM16). Nature of the assay: FRET-based PMIV inhibition assay. It is filed as biochemical, P. falciparum. On the procedure: A fluorescence resonance energy transfer (FRET)-based assay was performed to assess the ability of the compounds to inhibit PMIV, CatD, and BACE1. Serial dilutions of test compounds were dispensed in a white 96-well plate. […] The mixture was incubated for 20 min at 37 °C. […] IC50 values were calculated with GraphPad Prism 8.0 using the nonlinear regression, variable slope (four parameters). Compounds were tested in triplicate.

Where two headings read alike, the source gives them in different places.

Chain of PMIV (Q8IM16 122-449): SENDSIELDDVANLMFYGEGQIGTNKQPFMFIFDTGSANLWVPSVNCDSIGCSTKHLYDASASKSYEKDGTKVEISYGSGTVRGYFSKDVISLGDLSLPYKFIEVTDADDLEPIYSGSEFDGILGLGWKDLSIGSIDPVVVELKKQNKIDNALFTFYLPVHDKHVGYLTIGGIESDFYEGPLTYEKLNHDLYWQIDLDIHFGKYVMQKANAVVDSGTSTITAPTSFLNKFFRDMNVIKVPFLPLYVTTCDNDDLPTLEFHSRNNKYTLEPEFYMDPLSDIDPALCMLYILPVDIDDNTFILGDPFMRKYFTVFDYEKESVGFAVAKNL

Turning to `CCCN1CCCCCc2cccc(c2)C[C@@H]([C@H](O)CNC(C)(C)c2cccc(OC)c2)NC(=O)c2cccc(c2)C1=O` [7k, (S)-4-((R)-1-Hydroxy-2-((2-(3-methoxyphenyl)propan-2-yl)amino)ethyl)-12-propyl-3,12-diaza-1,6(1,3)-dibenzenacyclotridecaphane-2,13-dione], the IC50 is 17 ± 2 nM (Table 3, read-out: PMIV, nM (as listed in Table 3)) and 17 ± 2 nM (read-out: PMIV, nM (IC50)). In addition, the “improvement of PMIV inhibitory potency” value (compared to 7a) is given as 3 fold.
